In ChEMBL document CHEMBL5360649, “Potential Broad-Spectrum Antimicrobial, Wound Healing, and Disinfectant Cationic Peptide Crafted from Snake Venom” (J Med Chem, 2023):
Active and inactive are the calls of the source.

Assays:
Staphylococcus aureus = test: Antibacterial activity against methicillin resistant Staphylococcus aureus assessed as inhibition of bacterial growth at 1.25 to 40 uM incubated for 8 hrs by microtiter plate reader analysis; assay type: functional, organism-based; conditions: dose 1.25-40 µM
Escherichia coli = test: Induction of morphological changes in Escherichia coli at MIC concentration incubated for 6 hrs by AFM analysis; assay type: functional, organism-based
Klebsiella pneumoniae [1] = test: Induction of morphological changes in carbapenem resistant Klebsiella pneumoniae ATCC BAA-1705 at MIC concentration incubated for 6 hrs by SEM analysis; assay type: functional, organism-based
Klebsiella pneumoniae [2] = test: Induction of morphological changes in carbapenem resistant Klebsiella pneumoniae ATCC BAA-1705 assessed as membrane damage at MIC concentration incubated for 60 mins by SEM analysis; assay type: functional, organism-based
Cell membrane = test: Induction of cytoplasmic membrane depolarization in Escherichia coli assessed as increase in fluorescence intensity at 0.5 to 1 times of MIC by DiSC3-5 dye based fluorescence method; assay type: subcellular
Rattus norvegicus = species: Rattus norvegicus; test: Induction of wound healing in surgically-induced Albino Wistar rat wound model inoculated with methicillin-resistant Staphylococcus aureus assessed as hair follicle formation at 10 uM measured after 11 days by H&E staining based analysis; assay type: functional; conditions: time 11.0 day

Measured: Activity

H-FLPIIKWVKKFFWRWR-OH
active: all assays above
